According to patent US8198469B2, “Crystalline forms of tigecycline and processes for preparation thereof” (Teva Pharmaceutical Industries Ltd., priority 2006, dated 2012):

What was measured:
Type in all cases: physicochemical
[1] = Polymorphic transition due to heating in oven, solid analyzed by XRD
Experimental: (§1) X-Ray powder diffraction data were obtained by using methods known in the art, using a SCINTAG powder X-Ray diffractometer model X'TRA equipped with a solid-state detector. A Copper radiation of 1.5418 Å was used. A round aluminum sample holder with zero background was used. The scanning parameters included: range: 20 to 40° 2θ; scan mode: continuous scan; step size: 0.05°. The rate for Form XX [FIG. 16] was 3°/min using spin mode while the remaining crystalline forms were 5°/min using spin mode. All peak positions are within ±0.2 degrees two theta.
Tigecycline Form X was placed in oven at a temperature of between about 50-150° C. for about 0.5-2 hr (for example: 60 for 2 hr, 140° C. for 1 hr).
Tigecycline Form XI was placed in oven at a temperature of between about 50-80° C. for about 1-2 hr (for example: 60 for 2 hr).
Tigecycline Form XVII was placed in oven at a temperature of between about 50-70° C. for about 1-2 hr (for example: 60 for 2 hr).
Tigecycline Form XVII was placed in oven at a temperature of between about 90-110° C. for about 0.5-1 hr (for example: 100 for 0.5 hr).
Tigecycline Form XVIII was placed in oven at a temperature of between about 120-150° C. for about 0.5-1 hr (for example: 140 for 1 hr).
Tigecycline Form XXIV was placed in oven at a temperature of between about 110-140° C. for about 0.5-1 hr (for example: 120 for 0.5 hr, 140° C. for 1 hr).

[2] = Exposure to 0% or 100% relative humidity for 7 days at room temperature, crystal form monitored by XRD
Experimental: as §1, with “theta. […]” for “theta.”
Form I prepared from ethyl acetate (about 80 mg) as described in U.S. Application Ser. No. 60/796,800 was exposed to either 0% or 100% relative humidity for 7 days at room temperature. After the exposure the crystal form was monitored by XRD. […]

[3] = Vacuum drying of the solid, form re-analyzed by XRD; settings: for Solid form after vacuum drying: dried under vacuum, temperature and time not stated; for Solid form by XRD after drying: overnight at 40° C. under vacuum
Experimental: as §1
Tigecycline sample was dissolved in 20 volumes of hot iso-propanol. The solution thus obtained was allowed to cool at ambient temperature and then further cooled at 0-5° C. for about half an hour. The resulted suspension was filtered and the solid air-dried on the filter to afford Tigecycline of Form XII. The material was further dried overnight at 40° C. under vacuum without affecting the polymorphs, i.e. the vacuum dried Tigecycline was still identified as Form XII. The sizes of the Tigecycline Form XII crystals were less than 300 μm.
Tigecycline sample was dissolved in 20 volumes of n-propanol or 40 volumes of hot ethanol. The solution thus obtained was allowed to cool at ambient temperature and then further cooled at 0-5° C. for about half an hour. The resulted suspension was filtered and the solid air-dried on the filter to afford Tigecycline Form XIII. The material was further dried overnight under vacuum at 40° C. without affecting the polymorphs, i.e. the vacuum dried Tigecycline was still identified as Form XIII. The sizes of the Tigecycline Form XIII crystals were less than 300 μm.
2 grams of Tigecycline was dissolved in 440 mL of DDW and pH of the mixture was adjusted at 7.38 and 60 mL of THF were then added. The resulted solution was extracted 6 times with 60 mL portions of dichloromethane while pH is carefully controlled at 7.2-7.4. The combined organic extract was then dried over sodium sulfate and concentrated to about 10 mL to afford a suspension of Tigecycline. The solid was filtered and washed with heptane. Analysis of the material indicated Form XVII Tigecycline.
2 grams of Tigecycline was dissolved in 440 mL of DDW and pH of the mixture was adjusted at 7.33 and 60 mL of THF were then added. The resulted solution was extracted 6 times with 60 mL portions of dichloromethane while the pH is carefully controlled at 7.2-7.4. The combined organic extract was then dried over sodium sulfate, filtered and the solid was washed with 50 mL of dichloromethane into the initial filtrate. The combined filtrate was concentrated to 30-40 mL and the concentrated was stirred for about half an hour at 0-5° C. A precipitation occurred upon the cooling and the solid was collected and vacuum dried. Analysis of the material before and after the drying indicated Form XVIII of Tigecycline in both cases.
A solution of Tigecycline in dichloromethane was provided between 5 and 10 g/L, and dried over sodium sulfate. Toluene was added to the solution so that the total volume increased to about 1.15 of the original volume. The resulted solution was then partially evaporated so that the volume of the residual mixture was similar to that of the toluene added. The resulted suspension was filtered and the solid thus obtained was dried under vacuum. Analysis of the material before and after the drying indicated Form XIX of Tigecycline in both cases.
A solution of Tigecycline in dichloromethane was provided and dried over sodium sulfate. Di-n-butyl ether was added to the solution so that the total volume increased to about 1.15 of the original volume. The resulting solution was then partially evaporated so that the volume of the residual mixture was similar to that of the di-n-butyl ether added. The resulted suspension was filtered and the cake washed with di-n-butyl ether. Tigecycline thus obtained was identified as Form VIII in both wet and vacuum dried samples. […]

[4] = Pressing by a laboratory press, solid analyzed by XRD; settings: pressure of about 1-2 tons for about 1-3 min (e.g. 2 tons for 1 min)
Experimental: as §1
Tigecycline Form XI was pressed by a laboratory press by pressure of about 1-2 tons for about 1-3 min (for example: 2 tons for 1 min).
Tigecycline Form XVII was pressed by a laboratory press by pressure of about 1-2 tons for about 1-3 min (for example: 2 tons for 1 min).

[5] = Strong grinding by mortar and pestle, solid analyzed by XRD; settings: about 0.5-1 min
Experimental: as §1
Tigecycline Form XVII was strongly ground by mortal and pestle for about 0.5-1 min.

[6] = 120-150° C. for about 0.5-1 hr (e.g. 140° C. for 1 hr)

In the case of CN(C)c1cc(NC(=O)CNC(C)(C)C)c(O)c2c1C[C@H]1C[C@H]3[C@H](N(C)C)C(O)=C(C(N)=O)C(=O)[C@@]3(O)C(O)=C1C2=O [Form I, Tigecycline], the “Solid form by XRD after heating in oven” value [1, 6] is reported as “amorphous form”, the “Crystal form by XRD after exposure to relative humidity” value (“Crystal form … to relative humidity” below) ([2]; 0% RH) is reported as “New form XXV” and the “Crystal form … to relative humidity” value ([2]; 100% RH) is reported as “Amorphous”.

With CN(C)c1cc(NC(=O)CNC(C)(C)C)c(O)c2c1C[C@H]1C[C@H]3[C@H](N(C)C)C(O)=C(C(N)=O)C(=O)[C@@]3(O)C(O)=C1C2=O [Form IX, Tigecycline] the “Crystal form … to relative humidity” value ([2]; 100% RH) was “Form XXII”.

For CN(C)c1cc(NC(=O)CNC(C)(C)C)c(O)c2c1C[C@H]1C[C@H]3[C@H](N(C)C)C(O)=C(C(N)=O)C(=O)[C@@]3(O)C(O)=C1C2=O [Form VII, Tigecycline], the “Crystal form … to relative humidity” value ([2]; 0% RH) was “Form XXIII”.

With CN(C)c1cc(NC(=O)CNC(C)(C)C)c(O)c2c1C[C@H]1C[C@H]3[C@H](N(C)C)C(O)=C(C(N)=O)C(=O)[C@@]3(O)C(O)=C1C2=O [Form VIII, Tigecycline] the “Solid form after vacuum drying” value [3] was “Form VIII”.

For CN(C)c1cc(NC(=O)CNC(C)(C)C)c(O)c2c1C[C@H]1C[C@H]3[C@H](N(C)C)C(O)=C(C(N)=O)C(=O)[C@@]3(O)C(O)=C1C2=O [Form X, Tigecycline], the “Solid form by XRD after heating in oven” value ([1]; 50-150° C. for about 0.5-2 hr (e.g. 60 for 2 hr, 140° C. for 1 hr)) was “amorphous form”.

For CN(C)c1cc(NC(=O)CNC(C)(C)C)c(O)c2c1C[C@H]1C[C@H]3[C@H](N(C)C)C(O)=C(C(N)=O)C(=O)[C@@]3(O)C(O)=C1C2=O [Form XI, Tigecycline], the “Solid form by XRD after heating in oven” value ([1]; 50-80° C. for about 1-2 hr (e.g. 60 for 2 hr)) was “mixture of Form XI and Form VI”, the “Crystal form … to relative humidity” value ([2]; 0% RH) was “mixture of Form XI and Form VI” and the “Solid form by XRD after pressing” value [4] was “mixture of Form XI and Form VI”.

For CN(C)c1cc(NC(=O)CNC(C)(C)C)c(O)c2c1C[C@H]1C[C@H]3[C@H](N(C)C)C(O)=C(C(N)=O)C(=O)[C@@]3(O)C(O)=C1C2=O [Form XII, Tigecycline], the “Solid form by XRD after drying” value [3] was “Form XII”.

In the case of CN(C)c1cc(NC(=O)CNC(C)(C)C)c(O)c2c1C[C@H]1C[C@H]3[C@H](N(C)C)C(O)=C(C(N)=O)C(=O)[C@@]3(O)C(O)=C1C2=O [Form XIII, Tigecycline], the “Solid form by XRD after drying” value [3] is reported as “Form XIII”.

In the case of CN(C)c1cc(NC(=O)CNC(C)(C)C)c(O)c2c1C[C@H]1C[C@H]3[C@H](N(C)C)C(O)=C(C(N)=O)C(=O)[C@@]3(O)C(O)=C1C2=O [Form XIX, Tigecycline], the “Solid form after vacuum drying” value [3] is reported as “Form XIX”.

With CN(C)c1cc(NC(=O)CNC(C)(C)C)c(O)c2c1C[C@H]1C[C@H]3[C@H](N(C)C)C(O)=C(C(N)=O)C(=O)[C@@]3(O)C(O)=C1C2=O [Form XVII, Tigecycline] the “Solid form by XRD after heating in oven” value ([1]; 50-70° C. for about 1-2 hr (e.g. 60 for 2 hr)) was “mixture of Form XVII and Form VI”, the “Solid form by XRD after heating in oven” value ([1]; 90-110° C. for about 0.5-1 hr (e.g. 100 for 0.5 hr)) was “Form VI” and the “Solid form by XRD after pressing” value [4] was “mixture of Form XVII and Form VI”. For the same compound, the “Solid form by XRD after strong grinding” value [5] was “mixture of Form XVII and Form VI” and the “Solid form after vacuum drying” value [3] was “Form XVII”.

For CN(C)c1cc(NC(=O)CNC(C)(C)C)c(O)c2c1C[C@H]1C[C@H]3[C@H](N(C)C)C(O)=C(C(N)=O)C(=O)[C@@]3(O)C(O)=C1C2=O [Form XVIII, Tigecycline], the “Solid form by XRD after heating in oven” value [1, 6] was “amorphous form” and the “Solid form after vacuum drying” value [3] was “Form XVIII”.

For CN(C)c1cc(NC(=O)CNC(C)(C)C)c(O)c2c1C[C@H]1C[C@H]3[C@H](N(C)C)C(O)=C(C(N)=O)C(=O)[C@@]3(O)C(O)=C1C2=O [Form XXIV, Tigecycline], the “Solid form by XRD after heating in oven” value ([1]; 110-140° C. for about 0.5-1 hr (e.g. 120 for 0.5 hr, 140° C. for 1 hr)) was “amorphous form”.

For CN(C)c1cc(NC(=O)CNC(C)(C)C)c(O)c2c1C[C@H]1C[C@H]3[C@H](N(C)C)C(O)=C(C(N)=O)C(=O)[C@@]3(O)C(O)=C1C2=O [amorphous Tigecycline, Tigecycline], the “Solid form by XRD after drying” value [3] was “amorphous”.
